Assay results as given in article PMC6008299, “Impact of race on dose selection of molecular-targeted agents in early-phase oncology trials” (British Journal of Cancer, 2018).

Experiments:
[1] = test system: advanced solid tumours; assay: Tumour assessment RECIST 1.1, US study; assay type: in vivo, human; settings: of 27 patients
Method: (§1) In both studies, the PK profile of DS-7423 was characterised during cycle 1 on days 1 and 8. For PD analysis, glucose, C-peptide, and Akt phosphorylation were measured in platelet-rich plasma collected at predose, 1, 2, 4, 6, and 24 h after dosing on days 1 and 15. Tumour assessment was performed every two cycles using Response Evaluation Criteria in Solid Tumours (RECIST) version 1.1 in both studies. 18F-Fluoro-2-deoxy-D-glucose positron emission tomography ([18F]-FDG) was performed as an exploratory endpoint at baseline and on day 4.[10]

[2] = test system: CYP2C8, CYP3A4, and CYP3A5; parameters: method as in printed; settings: stated in discussion, ref not given; cited from earlier work
[3] = test system: tumour [18F]-FDG uptake; assay: [18F]-FDG-PET metabolic response, US (Caucasian) patients; assay type: in vivo, human; settings: day 4
Method: as §1

[4] = test system: advanced solid tumours; assay: Tumour assessment RECIST 1.1, Japanese study; assay type: in vivo, human; settings: Japan; of 25 patients
Method: as §1

[5] = test system: patients with advanced, refractory solid tumours; assay: Phase I dose-escalation study J102 (Japan): safety, DLT, MTD; assay type: in vivo
Text: Studies were approved by the Institutional Review Board at the participating institutions and regulatory authorities. Written informed consent in English and Japanese was obtained from all patients prior to enrollment.
Secondary and exploratory objectives were to evaluate PK, tumour response, and PD effects. Treatment-emergent adverse events (TEAE) were graded using the Common Terminology Criteria for Adverse Events version 4.0. A dose-limiting toxicity (DLT) was defined as a grade ≥3 clinically significant toxicity, with the exceptions of grade ≥4 anaemia and prolonged grade 3 neutropenia. Both studies were open-label, phase I dose-escalation studies. In Japan, the study was conducted at a single centre, while the US study was conducted at three sites. […] In the US, an accelerated titration design was used at low doses followed by a mCRM with EWOC. Briefly, the dose was escalated based on safety data in a single patient until a grade 2 or higher toxicity was observed during cycle 1 or the DLT period (days 1–28). […] Prophylactic granulocyte colony-stimulating factor and antiemetics were not permitted during cycle 1.

[6] = Pharmacokinetics in US cohort (U101); assay type: in vivo, human
Method: as §1
The data cut-off for the primary analysis occurred after all patients had either discontinued the study or completed 6 months of study drug treatment. Descriptive statistics were provided for selected demographic, safety, PK, and PD data by dose and time as appropriate. Descriptive statistics on continuous data included means, medians, standard deviations, and ranges, while categorical data were summarised using frequency counts and percentages. No inferential analysis to compare dose levels was performed due to limited sample sizes. The WinNonlin software was used for PK analysis.

[7] = 96 mg, Japanese cohort (56–96 mg group, n = 6)
[8] = 4–32 mg Japanese cohort (n = 12)
[9] = 56–96 mg Japanese cohort (n = 6)
[10] = dose level 4, US cohort (n = 1)
[11] = dose level 8, US cohort (n = 1)
[12] = dose level 16, US cohort (n = 3)
[13] = dose level 160, US cohort (n = 4)
[14] = dose level 240, US cohort (n = 7)

SMILES: CC(=O)N1CCN(c2nc3c(N4CCOCC4)nc(-c4cnc(N)nc4)nc3n2CC(F)(F)F)C[C@H]1C [DS-7423]
- Patients with tumour shrinkage and durable disease control [1]: 5
- Involvement of CYP2C8, CYP3A4, and CYP3A5 in metabolism [2]: involved in the metabolism
- Patients with partial metabolic response ([18F]-FDG-PET) [3]: 48.5%
- Patients with partial metabolic response ([18F]-FDG-PET) ([3]; of 33 patients): 16
- Patients with tumour shrinkage and durable disease control [4]: 5
- Hyperglycaemia G3, n patients ([5]; 56 mg, Japanese cohort (56–96 mg group, n = 6)): 1
- Diarrhoea G3, n patients [5, 7]: 1
- Hyperglycaemia G3, n patients [5, 7]: 1
- AST increased (TEAE), n patients ([5]; 160 mg Japanese cohort (n = 3)): 0
- Abdominal pain (TEAE), n patients ([5]; 160 mg Japanese cohort (n = 3)): 1
- Back pain (TEAE), n patients ([5]; 160 mg Japanese cohort (n = 3)): 0
- Blood creatinine increased (TEAE), n patients ([5]; 160 mg Japanese cohort (n = 3)): 0
- Constipation (TEAE), n patients ([5]; 160 mg Japanese cohort (n = 3)): 1
- Cough (TEAE), n patients ([5]; 160 mg Japanese cohort (n = 3)): 2
- Decreased appetite (TEAE), n patients ([5]; 160 mg Japanese cohort (n = 3)): 3
- Decreased appetite G3, n patients ([5]; 160 mg Japanese cohort (n = 3)): 1
- Dehydration (TEAE), n patients ([5]; 160 mg Japanese cohort (n = 3)): 0
- Diarrhoea (TEAE), n patients ([5]; 160 mg Japanese cohort (n = 3)): 2
- Diarrhoea G3, n patients ([5]; 160 mg Japanese cohort (n = 3)): 1
- Dry mouth (TEAE), n patients ([5]; 160 mg Japanese cohort (n = 3)): 0
- Dysgeusia (TEAE), n patients ([5]; 160 mg Japanese cohort (n = 3)): 2
- Dyspnea (TEAE), n patients ([5]; 160 mg Japanese cohort (n = 3)): 1
- Edema (TEAE), n patients ([5]; 160 mg Japanese cohort (n = 3)): 1
- Fatigue (TEAE), n patients ([5]; 160 mg Japanese cohort (n = 3)): 1
- Hyperglycaemia (TEAE), n patients ([5]; 160 mg Japanese cohort (n = 3)): 1 (1 G3)
- Hyperglycaemia G3, n patients ([5]; 160 mg Japanese cohort (n = 3)): 1 (1 G3)
- Lung infection/ pneumonia (TEAE), n patients ([5]; 160 mg Japanese cohort (n = 3)): 0
- Nausea (TEAE), n patients ([5]; 160 mg Japanese cohort (n = 3)): 3
- Pyrexia (TEAE), n patients ([5]; 160 mg Japanese cohort (n = 3)): 1
- Rash (TEAE), n patients ([5]; 160 mg Japanese cohort (n = 3)): 2
- Stomatitis (TEAE), n patients ([5]; 160 mg Japanese cohort (n = 3)): 2
- Vomiting (TEAE), n patients ([5]; 160 mg Japanese cohort (n = 3)): 2
- AST increased (TEAE), n patients ([5]; 240 mg Japanese cohort (n = 6)): 0
- Abdominal pain (TEAE), n patients ([5]; 240 mg Japanese cohort (n = 6)): 1
- Back pain (TEAE), n patients ([5]; 240 mg Japanese cohort (n = 6)): 1
- Blood creatinine increased (TEAE), n patients ([5]; 240 mg Japanese cohort (n = 6)): 0
- Constipation (TEAE), n patients ([5]; 240 mg Japanese cohort (n = 6)): 1
- Cough (TEAE), n patients ([5]; 240 mg Japanese cohort (n = 6)): 1
- Decreased appetite (TEAE), n patients ([5]; 240 mg Japanese cohort (n = 6)): 4
- Dehydration (TEAE), n patients ([5]; 240 mg Japanese cohort (n = 6)): 0
- Diarrhoea (TEAE), n patients ([5]; 240 mg Japanese cohort (n = 6)): 5
- Dry mouth (TEAE), n patients ([5]; 240 mg Japanese cohort (n = 6)): 1
- Dysgeusia (TEAE), n patients ([5]; 240 mg Japanese cohort (n = 6)): 3
- Dyspnea (TEAE), n patients ([5]; 240 mg Japanese cohort (n = 6)): 0
- Edema (TEAE), n patients ([5]; 240 mg Japanese cohort (n = 6)): 3
- Fatigue (TEAE), n patients ([5]; 240 mg Japanese cohort (n = 6)): 2
- Hyperglycaemia (TEAE), n patients ([5]; 240 mg Japanese cohort (n = 6)): 1 (1 G4)
- Hyperglycaemia G4, n patients ([5]; 240 mg Japanese cohort (n = 6)): 1 (1 G4)
- Lung infection/ pneumonia (TEAE), n patients ([5]; 240 mg Japanese cohort (n = 6)): 1 (1 G3)
- Lung infection/ pneumonia G3, n patients ([5]; 240 mg Japanese cohort (n = 6)): 1 (1 G3)
- Nausea (TEAE), n patients ([5]; 240 mg Japanese cohort (n = 6)): 6
- Pyrexia (TEAE), n patients ([5]; 240 mg Japanese cohort (n = 6)): 2
- Rash (TEAE), n patients ([5]; 240 mg Japanese cohort (n = 6)): 5
- Stomatitis (TEAE), n patients ([5]; 240 mg Japanese cohort (n = 6)): 6
- Vomiting (TEAE), n patients ([5]; 240 mg Japanese cohort (n = 6)): 3
- AST increased (TEAE), n patients [5, 8]: 0
- Abdominal pain (TEAE), n patients [5, 8]: 1
- Back pain (TEAE), n patients [5, 8]: 1
- Blood creatinine increased (TEAE), n patients [5, 8]: 1
- Constipation (TEAE), n patients [5, 8]: 3
- Cough (TEAE), n patients [5, 8]: 1
- Decreased appetite (TEAE), n patients [5, 8]: 7
- Dehydration (TEAE), n patients [5, 8]: 0
- Diarrhoea (TEAE), n patients [5, 8]: 6
- Dry mouth (TEAE), n patients [5, 8]: 0
- Dysgeusia (TEAE), n patients [5, 8]: 3
- Dyspnea (TEAE), n patients [5, 8]: 2
- Edema (TEAE), n patients [5, 8]: 2
- Fatigue (TEAE), n patients [5, 8]: 5
- Hyperglycaemia (TEAE), n patients [5, 8]: 0
- Lung infection/ pneumonia (TEAE), n patients [5, 8]: 0
- Nausea (TEAE), n patients [5, 8]: 6
- Pyrexia (TEAE), n patients [5, 8]: 0
- Rash (TEAE), n patients [5, 8]: 3
- Stomatitis (TEAE), n patients [5, 8]: 3
- Vomiting (TEAE), n patients [5, 8]: 4
- AST increased (TEAE), n patients [5, 9]: 1
- Abdominal pain (TEAE), n patients [5, 9]: 1
- Back pain (TEAE), n patients [5, 9]: 0
- Blood creatinine increased (TEAE), n patients [5, 9]: 0
- Constipation (TEAE), n patients [5, 9]: 1
- Cough (TEAE), n patients [5, 9]: 1
- Decreased appetite (TEAE), n patients [5, 9]: 2
- Dehydration (TEAE), n patients [5, 9]: 0
- Diarrhoea (TEAE), n patients [5, 9]: 4
- Dry mouth (TEAE), n patients [5, 9]: 1
- Dysgeusia (TEAE), n patients [5, 9]: 1
- Dyspnea (TEAE), n patients [5, 9]: 0
- Edema (TEAE), n patients [5, 9]: 1
- Fatigue (TEAE), n patients [5, 9]: 3
- Hyperglycaemia (TEAE), n patients [5, 9]: 2
- Lung infection/ pneumonia (TEAE), n patients [5, 9]: 0
- Nausea (TEAE), n patients [5, 9]: 1
- Pyrexia (TEAE), n patients [5, 9]: 0
- Rash (TEAE), n patients [5, 9]: 4
- Stomatitis (TEAE), n patients [5, 9]: 1
- Vomiting (TEAE), n patients [5, 9]: 1
- Grade 3 DLT ([5]; Japanese study, 240-mg cohort): lung infections and hyperglycaemia
- MTD ([5]; Japanese study, Asian patients): 240 mg
- Mean AUCtau [6, 10]: 21.86 ng·h/mL
- Mean Cmax [6, 10]: 4 ng/mL
- T1/2 [6, 10]: 6 to 7 h
- Tmax [6, 10]: 2 to 4 h
- Mean AUCtau [6, 11]: 131 ng·h/mL
- Mean Cmax [6, 11]: 20 ng/mL
- T1/2 [6, 11]: 6 to 7 h
- Tmax [6, 11]: 2 to 4 h
- Mean AUCtau [6, 12]: 133.5 ng·h/mL
- Mean Cmax [6, 12]: 20 ng/mL
- T1/2 [6, 12]: 6 to 7 h
- Tmax [6, 12]: 2 to 4 h
- Mean AUCtau [6, 13]: 1180.5 ng·h/mL
- Mean Cmax [6, 13]: 59 ng/mL
- T1/2 [6, 13]: 6 to 7 h
- Tmax [6, 13]: 2 to 4 h
- Mean AUCtau [6, 14]: 1458.2 ng·h/mL
- Mean Cmax [6, 14]: 92.0 ng/mL
- T1/2 [6, 14]: 12 h
- Tmax [6, 14]: 2 to 4 h
